How the values were obtained:
Assay in all cases: Cysteine liganding, probe competition
Assay type in all cases: binding
[1] = target: T1, UBR5 E3 ubiquitin-protein ligase UBR5 (Homo sapiens, UniProt O95071)
T1 construct: Cells were resuspended in cold PBS on ice and sonicated with a probe sonicator to achieve lysis; endogenous in cells
How it was run: (§1)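 Lysates from probe-sonicated cells in PBS (5 mg/ml proteome) were exposed to compound for 1 hr at 25° C, then labelled with desthiobiotin iodoacetamide probe (10 mM stock) for 1 hr at 25° C. Probe-tagged peptides were streptavidin-enriched after trypsin digestion.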

[2] = target: T2, ATG16L1 Autophagy-related protein 16-1 (Homo sapiens, UniProt Q676U5)
T2 construct: 200 μL of lysate containing 5 mg/ml proteome was treated with 2 μL of 100× compound stock; endogenous in cells
How it was run: as §1

[3] = target: T3, DCAF17 DDB1- and CUL4-associated factor 17 (Homo sapiens, UniProt Q5H9S7)
T3 construct: Cells were resuspended in cold PBS on ice and sonicated with a probe sonicator to achieve lysis; endogenous in cells
T3 sequence (Q5H9S7 1-520): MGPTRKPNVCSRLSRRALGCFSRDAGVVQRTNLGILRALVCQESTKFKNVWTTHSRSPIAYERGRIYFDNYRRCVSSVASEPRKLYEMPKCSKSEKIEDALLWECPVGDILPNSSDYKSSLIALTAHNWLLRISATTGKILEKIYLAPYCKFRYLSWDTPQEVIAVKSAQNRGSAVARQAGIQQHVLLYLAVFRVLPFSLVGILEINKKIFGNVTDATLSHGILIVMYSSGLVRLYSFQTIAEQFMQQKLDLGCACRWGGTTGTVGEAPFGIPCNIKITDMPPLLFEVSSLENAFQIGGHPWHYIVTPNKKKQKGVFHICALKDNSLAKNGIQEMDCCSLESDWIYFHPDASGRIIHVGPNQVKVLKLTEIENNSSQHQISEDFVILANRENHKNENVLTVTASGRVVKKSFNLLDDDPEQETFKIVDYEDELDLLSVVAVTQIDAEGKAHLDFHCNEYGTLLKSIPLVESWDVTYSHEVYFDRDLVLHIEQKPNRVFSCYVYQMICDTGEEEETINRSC
How it was run: as §1

[4] = target: T4, RPS6KA1 Ribosomal protein S6 kinase alpha-1 (Homo sapiens, UniProt Q15418)
T4 construct: Cells were resuspended in cold PBS on ice and sonicated with a probe sonicator to achieve lysis; endogenous in cells
How it was run: as §1

T2 sequence (Q676U5 whole entry): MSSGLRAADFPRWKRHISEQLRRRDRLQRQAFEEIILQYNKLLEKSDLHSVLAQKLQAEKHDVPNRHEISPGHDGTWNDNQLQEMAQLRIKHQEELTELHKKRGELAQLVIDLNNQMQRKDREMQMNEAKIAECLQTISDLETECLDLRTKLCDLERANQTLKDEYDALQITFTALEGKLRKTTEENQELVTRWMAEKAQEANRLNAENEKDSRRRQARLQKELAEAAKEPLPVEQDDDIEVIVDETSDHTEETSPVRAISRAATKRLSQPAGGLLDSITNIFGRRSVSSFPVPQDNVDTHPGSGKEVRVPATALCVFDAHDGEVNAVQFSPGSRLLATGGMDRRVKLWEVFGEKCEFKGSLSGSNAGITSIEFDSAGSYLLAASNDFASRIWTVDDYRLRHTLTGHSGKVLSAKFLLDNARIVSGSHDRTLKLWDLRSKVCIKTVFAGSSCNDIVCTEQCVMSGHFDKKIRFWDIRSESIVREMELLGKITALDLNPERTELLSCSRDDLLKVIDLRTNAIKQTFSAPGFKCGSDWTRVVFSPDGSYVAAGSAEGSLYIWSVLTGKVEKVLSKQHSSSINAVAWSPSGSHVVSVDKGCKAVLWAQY
T4 sequence (Q15418 whole entry): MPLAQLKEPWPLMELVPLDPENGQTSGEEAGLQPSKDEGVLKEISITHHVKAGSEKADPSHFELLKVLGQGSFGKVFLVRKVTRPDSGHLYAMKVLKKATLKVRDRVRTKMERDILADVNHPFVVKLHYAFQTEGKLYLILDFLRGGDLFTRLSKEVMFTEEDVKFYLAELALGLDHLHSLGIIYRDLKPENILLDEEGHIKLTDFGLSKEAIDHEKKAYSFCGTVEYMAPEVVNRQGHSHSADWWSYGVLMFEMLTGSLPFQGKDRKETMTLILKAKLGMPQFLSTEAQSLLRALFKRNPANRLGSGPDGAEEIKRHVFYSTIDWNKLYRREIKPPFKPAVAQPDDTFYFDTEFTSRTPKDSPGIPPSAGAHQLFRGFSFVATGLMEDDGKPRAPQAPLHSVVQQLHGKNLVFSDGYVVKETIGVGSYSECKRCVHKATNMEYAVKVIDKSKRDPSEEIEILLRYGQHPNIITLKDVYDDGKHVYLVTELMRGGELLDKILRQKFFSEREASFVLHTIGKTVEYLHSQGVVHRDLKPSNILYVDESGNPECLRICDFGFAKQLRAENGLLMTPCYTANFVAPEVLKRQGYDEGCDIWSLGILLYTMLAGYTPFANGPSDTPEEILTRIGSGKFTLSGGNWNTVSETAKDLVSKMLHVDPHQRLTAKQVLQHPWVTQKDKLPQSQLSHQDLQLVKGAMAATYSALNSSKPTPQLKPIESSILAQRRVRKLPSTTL
T1 sequence (O95071 whole entry): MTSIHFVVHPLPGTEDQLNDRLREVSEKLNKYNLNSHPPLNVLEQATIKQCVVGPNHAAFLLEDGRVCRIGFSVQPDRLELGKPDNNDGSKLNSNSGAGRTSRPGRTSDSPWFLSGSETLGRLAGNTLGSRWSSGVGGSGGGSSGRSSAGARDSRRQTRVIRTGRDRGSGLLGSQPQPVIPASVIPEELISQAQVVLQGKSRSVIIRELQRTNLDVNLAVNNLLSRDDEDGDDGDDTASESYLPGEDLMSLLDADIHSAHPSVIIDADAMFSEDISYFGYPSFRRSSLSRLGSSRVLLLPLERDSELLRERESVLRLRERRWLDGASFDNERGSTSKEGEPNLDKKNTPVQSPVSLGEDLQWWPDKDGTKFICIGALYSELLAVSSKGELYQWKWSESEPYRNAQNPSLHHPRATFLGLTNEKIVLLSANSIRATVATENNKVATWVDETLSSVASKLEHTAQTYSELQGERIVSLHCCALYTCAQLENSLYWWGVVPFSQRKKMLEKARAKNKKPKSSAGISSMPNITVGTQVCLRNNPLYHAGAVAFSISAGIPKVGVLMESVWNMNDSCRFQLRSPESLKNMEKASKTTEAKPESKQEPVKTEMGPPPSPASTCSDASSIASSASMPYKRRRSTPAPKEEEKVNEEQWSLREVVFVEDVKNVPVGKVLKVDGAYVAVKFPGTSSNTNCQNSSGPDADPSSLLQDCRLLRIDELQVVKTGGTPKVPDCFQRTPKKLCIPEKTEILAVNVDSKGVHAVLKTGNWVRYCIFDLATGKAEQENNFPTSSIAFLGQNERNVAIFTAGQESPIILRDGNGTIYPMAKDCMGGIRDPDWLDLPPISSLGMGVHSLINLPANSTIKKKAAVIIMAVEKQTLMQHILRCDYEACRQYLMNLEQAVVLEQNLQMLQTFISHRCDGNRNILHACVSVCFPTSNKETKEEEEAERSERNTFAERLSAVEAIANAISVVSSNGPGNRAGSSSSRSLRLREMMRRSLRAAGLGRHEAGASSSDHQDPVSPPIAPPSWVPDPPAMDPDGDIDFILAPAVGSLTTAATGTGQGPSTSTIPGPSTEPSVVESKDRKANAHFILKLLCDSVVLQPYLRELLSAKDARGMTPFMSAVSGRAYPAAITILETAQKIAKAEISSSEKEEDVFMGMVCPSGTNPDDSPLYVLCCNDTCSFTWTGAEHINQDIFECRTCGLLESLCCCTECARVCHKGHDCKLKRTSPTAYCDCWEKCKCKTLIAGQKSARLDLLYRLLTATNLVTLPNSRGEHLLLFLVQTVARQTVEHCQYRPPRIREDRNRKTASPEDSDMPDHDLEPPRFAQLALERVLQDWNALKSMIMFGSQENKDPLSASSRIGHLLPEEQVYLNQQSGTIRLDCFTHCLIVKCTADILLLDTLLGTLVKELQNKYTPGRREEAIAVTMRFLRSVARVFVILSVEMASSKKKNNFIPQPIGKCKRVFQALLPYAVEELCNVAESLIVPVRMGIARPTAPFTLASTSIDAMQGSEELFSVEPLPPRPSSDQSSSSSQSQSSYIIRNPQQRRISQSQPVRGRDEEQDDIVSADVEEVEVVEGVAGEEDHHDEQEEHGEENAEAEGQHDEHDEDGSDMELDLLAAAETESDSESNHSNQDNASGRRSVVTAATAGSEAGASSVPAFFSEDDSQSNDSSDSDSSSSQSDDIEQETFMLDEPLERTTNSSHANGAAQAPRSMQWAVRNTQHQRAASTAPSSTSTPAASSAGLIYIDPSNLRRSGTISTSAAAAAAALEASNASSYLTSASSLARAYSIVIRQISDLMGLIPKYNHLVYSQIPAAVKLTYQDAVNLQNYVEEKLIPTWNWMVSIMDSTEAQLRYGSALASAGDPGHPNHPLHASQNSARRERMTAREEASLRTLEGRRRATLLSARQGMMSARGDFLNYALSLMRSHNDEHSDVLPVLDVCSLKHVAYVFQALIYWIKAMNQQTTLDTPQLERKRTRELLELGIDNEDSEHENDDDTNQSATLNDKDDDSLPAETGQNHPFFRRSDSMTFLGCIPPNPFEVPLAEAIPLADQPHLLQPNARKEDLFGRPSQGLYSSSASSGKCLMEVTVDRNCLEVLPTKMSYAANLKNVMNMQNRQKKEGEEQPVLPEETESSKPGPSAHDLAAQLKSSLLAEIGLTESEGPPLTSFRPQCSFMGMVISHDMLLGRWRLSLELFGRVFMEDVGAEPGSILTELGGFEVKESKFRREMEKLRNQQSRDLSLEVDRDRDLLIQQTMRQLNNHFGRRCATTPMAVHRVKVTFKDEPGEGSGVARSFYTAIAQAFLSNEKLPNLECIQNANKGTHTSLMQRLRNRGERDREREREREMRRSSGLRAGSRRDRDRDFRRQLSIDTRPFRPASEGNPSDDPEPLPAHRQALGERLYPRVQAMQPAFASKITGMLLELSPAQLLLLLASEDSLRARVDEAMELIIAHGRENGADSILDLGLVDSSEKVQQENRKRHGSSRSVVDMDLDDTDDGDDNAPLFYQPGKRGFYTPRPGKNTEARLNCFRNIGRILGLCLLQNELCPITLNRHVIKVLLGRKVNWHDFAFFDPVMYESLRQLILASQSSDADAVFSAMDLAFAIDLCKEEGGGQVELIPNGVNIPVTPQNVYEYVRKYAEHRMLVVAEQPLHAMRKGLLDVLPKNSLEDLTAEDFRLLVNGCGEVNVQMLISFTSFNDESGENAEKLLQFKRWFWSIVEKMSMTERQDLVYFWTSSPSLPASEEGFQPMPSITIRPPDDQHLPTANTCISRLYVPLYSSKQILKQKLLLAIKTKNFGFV

Structure (SMILES) | Liganded ([1]; UBR5 Res# 2314, uniprot O95071) | Liganded ([2]; ATG16L1 Res# 145, uniprot Q676U5) | Liganded ([3]; DCAF17 Res# 20, uniprot Q5H9S7) | 100 Max ([3]; uniprot Q5H9S7) | 100 ave ([3]; uniprot Q5H9S7) | 500 Max ([3]; uniprot Q5H9S7) | 500 ave ([3]; uniprot Q5H9S7) | Liganded ([4]; RPS6KA1 Res# 223, uniprot Q15418) | 100 ave ([1]; uniprot O95071) | 500 Max ([1]; uniprot O95071) | 500 ave ([1]; uniprot O95071) | 100 Max ([1]; uniprot O95071, unit assumed) | 100 Max ([2]; uniprot Q676U5) | 100 ave ([2]; uniprot Q676U5) | 500 Max ([2]; uniprot Q676U5) | 500 ave ([2]; uniprot Q676U5) | 100 Max ([4]; uniprot Q15418) | 100 ave ([4]; uniprot Q15418) | 500 ave ([4]; uniprot Q15418) | 500 Max ([4]; uniprot Q15418, in % (unit assumed))
COc1ccc2c(c1)CCCN2C(=O)CCl [KB02] | YES | YES | YES | 60.8 | 40.3 | 91.7 | 91.7 | YES | – | – | – | – | – | – | – | – | – | – | – | –
O=C(CCl)Nc1cc(C(F)(F)F)cc(C(F)(F)F)c1 [KBO3] | – | – | – | −21.2 | −21.2 | – | – | – | −2.4 | 33.0 | 26.8 | 9.2% | −47.09 | −47.09 | 18.73 | 18.73 | 1.03 | 1.03 | 30.61 | 30.61

Source: patent publication US20200239530A1, “COMPOUNDS AND METHODS OF MODULATING PROTEIN DEGRADATION” (Vividion Therapeutics, Inc., priority 2017, published 2020)
